Molecules are shown by their SMILES.

We go through five compounds from article PMC7572458, “Multiple mutations in the EPSPS and ALS genes of Amaranthus hybridus underlie resistance to glyphosate and ALS inhibitors” (Scientific Reports, 2020).

The target of assay [1] is T1, ALS (acetolactate synthase) (Amaranthus hybridus, UniProt A0A346FHL9).
T1 construct: native, crude seedling leaf extract supernatant (15,000 g), not purified
The assay can be described thus: acetoin colorimetric (creatine/naphthol, […] nm), crude leaf extract. Format: biochemical. The note with it: read-out: I50 (μM) ± SE.

Assay [2] deals with T2, ALS (acetolactate synthase).
T2 construct: native, crude seedling leaf extract supernatant (15,000 g), not purified
The assay is described as above. It is filed as biochemical, Amaranthus hybridus. The settings on record: MR2 population, zygosity not given; pyruvate, MgCl2, FAD, pH 7.5, 37 °C, 1 h; stated gain; read-out: I50 (μM) ± SE.

T1 sequence (A0A346FHL9 81-669 limits assumed): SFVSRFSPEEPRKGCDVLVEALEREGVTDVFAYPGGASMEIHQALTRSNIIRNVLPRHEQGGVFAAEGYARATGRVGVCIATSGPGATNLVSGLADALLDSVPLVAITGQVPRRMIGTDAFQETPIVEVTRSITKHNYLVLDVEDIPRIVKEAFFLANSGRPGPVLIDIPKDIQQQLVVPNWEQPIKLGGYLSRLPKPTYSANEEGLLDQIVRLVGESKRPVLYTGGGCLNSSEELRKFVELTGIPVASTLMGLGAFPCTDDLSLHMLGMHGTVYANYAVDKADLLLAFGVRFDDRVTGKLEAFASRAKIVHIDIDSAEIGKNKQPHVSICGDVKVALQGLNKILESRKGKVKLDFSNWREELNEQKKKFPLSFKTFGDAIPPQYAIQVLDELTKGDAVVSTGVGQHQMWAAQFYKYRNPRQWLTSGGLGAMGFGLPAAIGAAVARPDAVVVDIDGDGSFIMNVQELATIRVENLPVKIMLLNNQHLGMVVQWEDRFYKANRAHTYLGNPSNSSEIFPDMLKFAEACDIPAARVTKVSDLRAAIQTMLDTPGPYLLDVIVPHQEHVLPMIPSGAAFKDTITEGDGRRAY

In the case of `COc1cc(OC)nc(Oc2cccc(Oc3nc(OC)cc(OC)n3)c2C(=O)O)n1` [byspiribac], the IC50 was 45.9 ± 8 µM in assay [1] and 2730 ± 80 µM in assay [2].

In the case of `COc1ncc(F)c2nc(S(=O)(=O)Nc3c(F)cccc3F)nn12` [florasulam], the IC50 in assay [1] is 17.4 ± 1.4 µM; in assay [2] it was 56.5 ± 9 µM.

Regarding `COc1nn(C(=O)NS(=O)(=O)c2ccccc2OC(F)(F)F)c(=O)n1C` [flucarbazone], the IC50 was 1 ± 0.1 µM in assay [1] and 145 ± 11.5 µM in assay [2].

On to `COCc1cnc(C2=NC(C)(C(C)C)C(=O)N2)c(C(=O)O)c1` (stereo not shown) [imazamox], for which the IC50 in assay [1] stood at 117 ± 9.1 µM; in assay [2], 3170 ± 112 µM.

In the case of `COC(=O)c1ccccc1S(=O)(=O)NC(=O)N(C)c1nc(C)nc(OC)n1` [tribenuron-methyl], the results for the IC50 in assay [1] and in assay [2] were 47.5 ± 6.3 µM and 273 ± 26 µM, respectively.
